{"source": "paper PMC9038795", "about": "“Deletion and tandem duplications of biosynthetic genes drive the diversity of triterpenoids in Aralia elata” (Nature Communications, 2022)", "experiment_in_all_cases": "HPLC-MS kinetic assay", "format_in_all_cases": "biochemical, Aralia elata", "conditions_in_all_cases": "0.5 mM UDP-Glc, 50 mM Tris-HCl pH 7.0, 30 °C, 1 µM enzyme", "key": {"[1]": {"test_system": "T1, AeUGT73CB3", "T1 construct": "pGEX-4T-1, GST-tagged, E. coli BL21 (DE3), GSTrap purified; methods print AeUGT74CB3", "procedure": "HPLC-MS kinetic assay on AeUGT73CB3 | The kinetic parameters of AeUGT73CB3 for calenduloside E and chikusetsusaponin IVa as substrates were analyzed."}, "[2]": {"test_system": "T2, AeUGT74AG6", "T2 construct": "pGEX-4T-1, GST-tagged, E. coli BL21 (DE3), GSTrap purified"}, "[3]": {"test_system": "T3, AeUGT73AD2", "T3 construct": "pGEX-4T-1, GST-tagged, E. coli BL21 (DE3), GSTrap purified"}}}
{"smiles": "CC1(C)CC[C@]2(C(=O)O)CC[C@]3(C)C(=CC[C@@H]4[C@@]5(C)CC[C@H](O[C@@H]6O[C@H](C(=O)O)[C@@H](O)[C@H](O)[C@H]6O)C(C)(C)[C@@H]5CC[C@]43C)[C@@H]2C1", "note": "[compound 7, calenduloside E]", "values": [{"measurement": "Km", "setting": "[1]", "result": "51.8 ± 2.1", "unit": "µM"}, {"measurement": "Km", "setting": "[2]", "result": "150 ± 7.7", "unit": "µM"}]}
{"smiles": "CC1(C)CC[C@]2(C(=O)O)CC[C@]3(C)C(=CC[C@@H]4[C@@]5(C)CC[C@H](O[C@@H]6O[C@H](C(=O)O)[C@@H](O)[C@H](O)[C@H]6O[C@@H]6O[C@H](CO)[C@@H](O)[C@H](O)[C@H]6O)C(C)(C)[C@@H]5CC[C@]43C)[C@@H]2C1", "note": "[compound 8, zingibroside R1]", "values": [{"measurement": "Km", "setting": "[2]", "result": "48.8 ± 3.04", "unit": "µM"}]}
{"smiles": "CC1(C)CC[C@]2(C(=O)O[C@@H]3O[C@H](CO)[C@@H](O)[C@H](O)[C@H]3O)CC[C@]3(C)C(=CC[C@@H]4[C@@]5(C)CC[C@H](O[C@@H]6O[C@H](C(=O)O)[C@@H](O)[C@H](O)[C@H]6O)C(C)(C)[C@@H]5CC[C@]43C)[C@@H]2C1", "note": "[compound 9, chikusetsusaponin IVa]", "values": [{"measurement": "Km", "setting": "[1]", "result": "640.2 ± 4.6", "unit": "µM"}]}
{"smiles": "CC1(C)CC[C@]2(C(=O)O)CC[C@]3(C)C(=CC[C@@H]4[C@@]5(C)CC[C@H](O)C(C)(C)[C@@H]5CC[C@]43C)[C@@H]2C1", "note": "[compound 2, oleanolic acid]", "values": [{"measurement": "Km", "setting": "[3]", "result": "43 ± 9.17", "unit": "µM"}, {"measurement": "Km", "setting": "[2]", "result": "40.3 ± 2.49", "unit": "µM"}]}
